Measurements: the supplement of paper PMC10307832

Legend:
Test in all cases: relative viability (nuclei count vs DMSO), 5 days (fraction); higher = more cells survive
Palbociclib = compound: CC(=O)c1c(C)c2cnc(Nc3ccc(N4CCNCC4)cn3)nc2n(C2CCCC2)c1=O [Palbociclib]
Outline: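 Lung cancer cell lines in 1536-well plates were kept overnight at 37 °C, then pinned with five library-drug doses (not always all listed) spaced by √10 on vehicle-anchored plates. After 5 days without medium change, cells were fixed, permeabilised and Hoechst-stained in one step, imaged at 4×, and nuclei were counted with MetaXpress. Viability is treated-well nuclei divided by vehicle-well nuclei, taken as the median over plates. Plates passed only with control CV below 25% and at least one doubling.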

Palbociclib + OSI-027 = compound: CC(=O)c1c(C)c2cnc(Nc3ccc(N4CCNCC4)cn3)nc2n(C2CCCC2)c1=O [Palbociclib] + COc1cccc2cc(-c3nc([C@H]4CC[C@H](C(=O)O)CC4)n4ncnc(N)c34)[nH]c12 [OSI-027] (partner 0.5 µM)
Outline: (§1)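 Five library-drug doses in √10 steps were combined with a fixed anchor-drug dose, or a single drug was given alone, by pin tool to lung cancer cell lines in 1536-well plates the day after seeding. Nuclei were stained and counted after 5 days. Relative viability is the nuclei count in treated wells over that in vehicle wells, taken as the median of duplicate plates.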

Palbociclib + Luminespib = compound: CC(=O)c1c(C)c2cnc(Nc3ccc(N4CCNCC4)cn3)nc2n(C2CCCC2)c1=O [Palbociclib] + CCNC(=O)c1noc(-c2cc(C(C)C)c(O)cc2O)c1-c1ccc(CN2CCOCC2)cc1 [Luminespib] (partner 0.01 µM)
Outline: as §1

Palbociclib + Tozasertib = compound: CC(=O)c1c(C)c2cnc(Nc3ccc(N4CCNCC4)cn3)nc2n(C2CCCC2)c1=O [Palbociclib] + Cc1cc(Nc2cc(N3CCN(C)CC3)nc(Sc3ccc(NC(=O)C4CC4)cc3)n2)n[nH]1 [Tozasertib] (partner 0.1 µM)
Outline: as §1

Palbociclib + Foretinib = compound: CC(=O)c1c(C)c2cnc(Nc3ccc(N4CCNCC4)cn3)nc2n(C2CCCC2)c1=O [Palbociclib] + COc1cc2c(Oc3ccc(NC(=O)C4(C(=O)Nc5ccc(F)cc5)CC4)cc3F)ccnc2cc1OCCCN1CCOCC1 [Foretinib] (partner 0.25 µM)
Outline: as §1

Palbociclib + Phenformin = compound: CC(=O)c1c(C)c2cnc(Nc3ccc(N4CCNCC4)cn3)nc2n(C2CCCC2)c1=O [Palbociclib] + N=C(N)NC(=N)NCCc1ccccc1 [Phenformin] (partner 250 µM)
Outline: as §1

Palbociclib + Dasatinib = compound: CC(=O)c1c(C)c2cnc(Nc3ccc(N4CCNCC4)cn3)nc2n(C2CCCC2)c1=O [Palbociclib] + Cc1nc(Nc2ncc(C(=O)Nc3c(C)cccc3Cl)s2)cc(N2CCN(CCO)CC2)n1 [Dasatinib] (partner 0.075 µM)
Outline: as §1

Palbociclib + Bortezomib = compound: CC(=O)c1c(C)c2cnc(Nc3ccc(N4CCNCC4)cn3)nc2n(C2CCCC2)c1=O [Palbociclib] + CC(C)C[C@H](NC(=O)[C@H](Cc1ccccc1)NC(=O)c1cnccn1)B(O)O [Bortezomib] (partner 0.002 µM)
Outline: as §1

Palbociclib + Alpelisib = compound: CC(=O)c1c(C)c2cnc(Nc3ccc(N4CCNCC4)cn3)nc2n(C2CCCC2)c1=O [Palbociclib] + Cc1nc(NC(=O)N2CCC[C@H]2C(N)=O)sc1-c1ccnc(C(C)(C)C(F)(F)F)c1 [Alpelisib] (partner 2 µM)
Outline: as §1

Palbociclib + Linsitinib = compound: CC(=O)c1c(C)c2cnc(Nc3ccc(N4CCNCC4)cn3)nc2n(C2CCCC2)c1=O [Palbociclib] + C[C@]1(O)C[C@@H](c2nc(-c3ccc4ccc(-c5ccccc5)nc4c3)c3c(N)nccn32)C1 [Linsitinib] (partner 1 µM)
Outline: as §1

Palbociclib + Pictilisib = compound: CC(=O)c1c(C)c2cnc(Nc3ccc(N4CCNCC4)cn3)nc2n(C2CCCC2)c1=O [Palbociclib] + CS(=O)(=O)N1CCN(Cc2cc3nc(-c4cccc5[nH]ncc45)nc(N4CCOCC4)c3s2)CC1 [Pictilisib] (partner 1 µM)
Outline: as §1

Palbociclib + Olaparib = compound: CC(=O)c1c(C)c2cnc(Nc3ccc(N4CCNCC4)cn3)nc2n(C2CCCC2)c1=O [Palbociclib] + O=C(c1cc(Cc2n[nH]c(=O)c3ccccc23)ccc1F)N1CCN(C(=O)C2CC2)CC1 [Olaparib] (partner 8 µM)
Outline: as §1

Palbociclib + Navitoclax = compound: CC(=O)c1c(C)c2cnc(Nc3ccc(N4CCNCC4)cn3)nc2n(C2CCCC2)c1=O [Palbociclib] + CC1(C)CCC(c2ccc(Cl)cc2)=C(CN2CCN(c3ccc(C(=O)NS(=O)(=O)c4ccc(N[C@H](CCN5CCOCC5)CSc5ccccc5)c(S(=O)(=O)C(F)(F)F)c4)cc3)CC2)C1 [Navitoclax] (partner 0.5 µM)
Outline: as §1

Palbociclib + Lapatinib = compound: CC(=O)c1c(C)c2cnc(Nc3ccc(N4CCNCC4)cn3)nc2n(C2CCCC2)c1=O [Palbociclib] + CS(=O)(=O)CCNCc1ccc(-c2ccc3ncnc(Nc4ccc(OCc5cccc(F)c5)c(Cl)c4)c3c2)o1 [Lapatinib] (partner 2 µM)
Outline: as §1

Palbociclib + Crizotinib = compound: CC(=O)c1c(C)c2cnc(Nc3ccc(N4CCNCC4)cn3)nc2n(C2CCCC2)c1=O [Palbociclib] + C[C@@H](Oc1cc(-c2cnn(C3CCNCC3)c2)cnc1N)c1c(Cl)ccc(F)c1Cl [Crizotinib] (partner 1 µM)
Outline: as §1

NCI-H1623
relative viability (Palbociclib; 0.01 µM): 1.16 | relative viability (Palbociclib; 0.03162 µM): 0.885 | relative viability (Palbociclib; 0.1 µM): 0.918 | relative viability (Palbociclib; 0.3162 µM): 0.951 | relative viability (Palbociclib; 1 µM): 0.686 | relative viability (Palbociclib + OSI-027; first compound 0.01 µM): 0.488 | relative viability (Palbociclib + OSI-027; first compound 0.03162 µM): 0.512 | relative viability (Palbociclib + OSI-027; first compound 0.1 µM): 0.448 | relative viability (Palbociclib + OSI-027; first compound 0.3162 µM): 0.398 | relative viability (Palbociclib + OSI-027; first compound 1 µM): 0.364 | relative viability (Palbociclib + Luminespib; first compound 0.01 µM): 0.496 | relative viability (Palbociclib + Luminespib; first compound 0.03162 µM): 0.473 | relative viability (Palbociclib + Luminespib; first compound 0.1 µM): 0.587 | relative viability (Palbociclib + Luminespib; first compound 0.3162 µM): 0.463 | relative viability (Palbociclib + Luminespib; first compound 1 µM): 0.463 | relative viability (Palbociclib + Tozasertib; first compound 0.01 µM): 0.481 | relative viability (Palbociclib + Tozasertib; first compound 0.03162 µM): 0.48 | relative viability (Palbociclib + Tozasertib; first compound 0.1 µM): 0.476 | relative viability (Palbociclib + Tozasertib; first compound 0.3162 µM): 0.417 | relative viability (Palbociclib + Tozasertib; first compound 1 µM): 0.37 | relative viability (Palbociclib + Foretinib; first compound 0.01 µM): 0.97 | relative viability (Palbociclib + Foretinib; first compound 0.03162 µM): 0.741 | relative viability (Palbociclib + Foretinib; first compound 0.1 µM): 0.867 | relative viability (Palbociclib + Foretinib; first compound 0.3162 µM): 0.994 | relative viability (Palbociclib + Foretinib; first compound 1 µM): 0.64 | relative viability (Palbociclib + Phenformin; first compound 0.01 µM): 0.602 | relative viability (Palbociclib + Phenformin; first compound 0.03162 µM): 0.534 | relative viability (Palbociclib + Phenformin; first compound 0.1 µM): 0.628 | relative viability (Palbociclib + Phenformin; first compound 0.3162 µM): 0.615 | relative viability (Palbociclib + Phenformin; first compound 1 µM): 0.496 | relative viability (Palbociclib + Dasatinib; first compound 0.01 µM): 0.551 | relative viability (Palbociclib + Dasatinib; first compound 0.03162 µM): 0.473 | relative viability (Palbociclib + Dasatinib; first compound 0.1 µM): 0.517 | relative viability (Palbociclib + Dasatinib; first compound 0.3162 µM): 0.546 | relative viability (Palbociclib + Dasatinib; first compound 1 µM): 0.453

EBC-1
relative viability (Palbociclib; 0.01 µM): 1.02 | relative viability (Palbociclib; 0.03162 µM): 0.809 | relative viability (Palbociclib; 0.1 µM): 0.662 | relative viability (Palbociclib; 0.3162 µM): 0.543 | relative viability (Palbociclib; 1 µM): 0.248 | relative viability (Palbociclib + Bortezomib; first compound 0.01 µM): 0.468 | relative viability (Palbociclib + Bortezomib; first compound 0.03162 µM): 0.445 | relative viability (Palbociclib + Bortezomib; first compound 0.1 µM): 0.353 | relative viability (Palbociclib + Bortezomib; first compound 0.3162 µM): 0.281 | relative viability (Palbociclib + Bortezomib; first compound 1 µM): 0.193 | relative viability (Palbociclib + Alpelisib; first compound 0.01 µM): 0.786 | relative viability (Palbociclib + Alpelisib; first compound 0.03162 µM): 0.774 | relative viability (Palbociclib + Alpelisib; first compound 0.1 µM): 0.573 | relative viability (Palbociclib + Alpelisib; first compound 0.3162 µM): 0.409 | relative viability (Palbociclib + Alpelisib; first compound 1 µM): 0.184 | relative viability (Palbociclib + Linsitinib; first compound 0.01 µM): 0.923 | relative viability (Palbociclib + Linsitinib; first compound 0.03162 µM): 0.843 | relative viability (Palbociclib + Linsitinib; first compound 0.1 µM): 0.647 | relative viability (Palbociclib + Linsitinib; first compound 0.3162 µM): 0.554 | relative viability (Palbociclib + Linsitinib; first compound 1 µM): 0.293 | relative viability (Palbociclib + Pictilisib; first compound 0.01 µM): 0.366 | relative viability (Palbociclib + Pictilisib; first compound 0.03162 µM): 0.241 | relative viability (Palbociclib + Pictilisib; first compound 0.1 µM): 0.202 | relative viability (Palbociclib + Pictilisib; first compound 0.3162 µM): 0.178 | relative viability (Palbociclib + Pictilisib; first compound 1 µM): 0.183 | relative viability (Palbociclib + Olaparib; first compound 0.01 µM): 0.696 | relative viability (Palbociclib + Olaparib; first compound 0.03162 µM): 0.647 | relative viability (Palbociclib + Olaparib; first compound 0.1 µM): 0.452 | relative viability (Palbociclib + Olaparib; first compound 0.3162 µM): 0.514 | relative viability (Palbociclib + Olaparib; first compound 1 µM): 0.241 | relative viability (Palbociclib + Navitoclax; first compound 0.01 µM): 0.363 | relative viability (Palbociclib + Navitoclax; first compound 0.03162 µM): 0.367 | relative viability (Palbociclib + Navitoclax; first compound 0.1 µM): 0.283 | relative viability (Palbociclib + Navitoclax; first compound 0.3162 µM): 0.215 | relative viability (Palbociclib + Navitoclax; first compound 1 µM): 0.195 | relative viability (Palbociclib + Foretinib; first compound 0.01 µM): 0.113 | relative viability (Palbociclib + Foretinib; first compound 0.03162 µM): 0.0957 | relative viability (Palbociclib + Foretinib; first compound 0.1 µM): 0.0957 | relative viability (Palbociclib + Foretinib; first compound 0.3162 µM): 0.0852 | relative viability (Palbociclib + Foretinib; first compound 1 µM): 0.0884 | relative viability (Palbociclib + Lapatinib; first compound 0.01 µM): 0.221 | relative viability (Palbociclib + Lapatinib; first compound 0.03162 µM): 0.215 | relative viability (Palbociclib + Lapatinib; first compound 0.1 µM): 0.178 | relative viability (Palbociclib + Lapatinib; first compound 0.3162 µM): 0.191 | relative viability (Palbociclib + Lapatinib; first compound 1 µM): 0.192 | relative viability (Palbociclib + Crizotinib; first compound 0.01 µM): 0.193 | relative viability (Palbociclib + Crizotinib; first compound 0.03162 µM): 0.165 | relative viability (Palbociclib + Crizotinib; first compound 0.1 µM): 0.195 | relative viability (Palbociclib + Crizotinib; first compound 0.3162 µM): 0.17 | relative viability (Palbociclib + Crizotinib; first compound 1 µM): 0.18
